Experimental data published in patent publication US11207312B2, “Metallo-beta-lactamase inhibitors and methods of use thereof” (priority 2017, dated 2021).
Read-outs that look alike come from different tables or passages of the source.

Assays:
[1] = tested on: P. aeruginosa MB9799 (efflux-, IMP-1 plasmid); format: cell-based, Pseudomonas aeruginosa; conditions: efflux − (MB9799) strain; imipenem at 2 μg/mL; in the presence of a class A, C, D serine β-lactamase inhibitor closely related to relebactam
Method in brief: (§1)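 PAO1-derived isogenic pair (oprD+, inducible AmpC), efflux+ MB5919 or efflux− MB5890 parent, carrying an electroporated IMP-1 plasmid from a clinical isolate. Microbroth MIC with fixed imipenem and/or ceftazidime (usually CLSI breakpoint) plus fixed class A/C inhibitor; MBL inhibitor serially titrated, concentration restoring susceptibility recorded.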

NDM-1 = NDM-1 (Klebsiella pneumoniae, UniProt C7C422); test: biochemical; format: biochemical; conditions: CCF2-FA fluorescence assay, 2 hours at 25° C.
Method in brief: (§2)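 Enzyme (NDM-1 1 pM, IMP-1 2 pM, VIM-1 30 pM final) and 1.25 μM CCF2-FA incubated with inhibitor (20 to 0.00063 μM) for 2 h at 25° C in 100 mM KH2PO4 pH 7, 0.005% Tween-20, 10 μM ZnSO4. Fluorescence read at ex 405/em 460 nm; IC50 by 4-parameter fit.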

[2] = tested on: P. aeruginosa MB9798 (efflux+, IMP-1 plasmid); conditions: for MB9798 MITC95 P. aeruginosa uM Efflux WT: efflux + (MB9798) strain, imipenem at 2 μg/mL, in the presence of a class A, C, D serine β-lactamase inhibitor closely related to relebactam; for Efflux ratio: fold difference between efflux+ (MB9798) and efflux− (MB9799) strains
Method in brief: as §1

[3] = tested on: Klebsiella pneumoniae expressing VIM-1 (IHMA599644); format: cell-based; conditions: with imipenem 1 μg/ml; 95% inhibition of bacterial growth
Method in brief: (§3)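 Colonies from sheep-blood agar plates are resuspended in saline, then diluted 1:100 in 1.1× CAMHB. Bacteria receive imipenem (1 μg/ml) and test compound, then incubate 22–24 h at 35 °C. Potentiation is reported as MITC95 from absorbance.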

[4] = tested on: Serratia marcescens expressing IMP-1 (CL5741); format: cell-based; conditions: with imipenem 1 μg/ml; 95% inhibition of bacterial growth
Method in brief: as §3

[5] = tested on: Escherichia coli expressing NDM-1 (CLB30016); format: cell-based; conditions: with imipenem 1 μg/ml; 95% inhibition of bacterial growth
Method in brief: as §3

IMP-1 = IMP-1 (Serratia marcescens, UniProt P52699); test: biochemical; conditions: CCF2-FA fluorescence assay, 2 hours at 25° C.; read-out: IMP1 IC50
Method in brief: as §2

VIM-1 = VIM-1 (Pseudomonas aeruginosa (strain ATCC 15692 / DSM 22644 / CIP 104116 / JCM 14847 / LMG 12228 / 1C / PRS 101 / PAO1), UniProt A0A0F7KYQ8); test: biochemical; conditions: CCF2-FA fluorescence assay, 2 hours at 25° C.; read-out: VIM1 IC50
Method in brief: as §2

VIM-2 = VIM-2 (Escherichia coli, UniProt Q5U7L7); test: biochemical
[6] = CCF2-FA fluorescence assay, read-out: VIM2 IC50

Chain of NDM-1 (C7C422 whole entry, looked up, species assumed): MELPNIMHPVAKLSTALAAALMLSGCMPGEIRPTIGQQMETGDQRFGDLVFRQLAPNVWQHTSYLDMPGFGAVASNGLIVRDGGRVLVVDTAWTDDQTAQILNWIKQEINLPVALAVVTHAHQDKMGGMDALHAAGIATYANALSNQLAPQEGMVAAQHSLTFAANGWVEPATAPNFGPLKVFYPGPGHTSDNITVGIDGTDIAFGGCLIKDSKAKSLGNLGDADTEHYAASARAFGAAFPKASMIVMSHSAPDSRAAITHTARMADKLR
Chain of IMP-1 (P52699 whole entry, looked up, species assumed): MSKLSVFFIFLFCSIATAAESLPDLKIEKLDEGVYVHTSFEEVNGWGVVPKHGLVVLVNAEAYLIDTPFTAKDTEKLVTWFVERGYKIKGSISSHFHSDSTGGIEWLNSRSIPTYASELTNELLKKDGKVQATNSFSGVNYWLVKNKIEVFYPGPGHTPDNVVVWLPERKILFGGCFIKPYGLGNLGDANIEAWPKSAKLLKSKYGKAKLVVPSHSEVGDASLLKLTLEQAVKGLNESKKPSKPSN

SMILES	MB9799 MITC95 P. aeruginosa uM Efflux Mutant [1] [µM]	IC50 (NDM-1) [nM]	MB9798 MITC95 P. aeruginosa uM Efflux WT [2] [µM]	Efflux ratio [2]	IHMA599644 K. pneumoniae MITC95 VIM [3] [µM]	CL5741 S. marcescens MITC95 IMP [4] [µM]	CLB30016 E. coli MITC95 NDM [5] [µM]	IC50 (IMP-1) [nM]	IC50 (VIM-1) [nM]	IC50 (VIM-2; [6]) [nM]	IC50 (VIM-2; VIM2 IC50, CCF2-FA fluorescence assay) [nM]
NS(=O)(=O)c1c(S(=O)(=O)N[C@@H]2CCNC2)ccc(N2CCNC2=S)c1-c1nn[nH]n1 [Example 191, (R)—N1-(pyrrolidin-3-yl)-3-(2H-tetrazol-5-yl)-4-(2-thioxoimidazolidin-1-yl)benzene-1,2-disulfonamide]	1.56	0.94	6.25	4.00	3.13	1.56	0.78	25.2	0.21	1.15	
NC[C@@H](O)CNS(=O)(=O)c1ccc(N[C@H]2C[C@H](N)C2)c(-c2nnn[nH]2)c1S(N)(=O)=O [Example 192, (R)—N1-(3-amino-2-hydroxypropyl)-4-((3-aminocyclobutyl)amino)-3-(1H-tetrazol-5-yl)benzene-1,2-disulfonamide]	3.13	66.3	6.25	2.00	6.25	3.13	1.56	97	67.5		200
NCCCC1CCN(c2ccc(S(=O)(=O)NC[C@H](O)CN)c(S(N)(=O)=O)c2-c2nn[nH]n2)CC1 [Example 193, (R)-N1-(3-amino-2-hydroxypropyl)-4-(4-(3-aminopropyl)piperidin-1-yl)-3-(2H-tetrazol-5-yl)benzene-1,2-disulfonamide]	0.78	0.48	0.78	1.00	1.56	1.56	1.56	0.67	0.075	0.75	
NC[C@@H](O)CNS(=O)(=O)c1ccc(N2CCC(N)CC2)c(-c2nn[nH]n2)c1S(N)(=O)=O [Example 194, (R)-N1-(3-amino-2-hydroxypropyl)-4-(4-aminopiperidin-1-yl)-3-(2H-tetrazol-5-yl)benzene-1,2-disulfonamide]	0.78	26.5	0.78	1.00	0.78	0.20	0.39	16	0.17	14.9	
NC[C@@H](O)CNS(=O)(=O)c1ccc(N2CC[C@H](N)[C@H](F)C2)c(-c2nn[nH]n2)c1S(N)(=O)=O [Example 195, N1-((R)-3-amino-2-hydroxypropyl)-4-((3R,4S)-4-amino-3-fluoropiperidin-1-yl)-3-(2H-tetrazol-5-yl)benzene-1,2-disulfonamide]	0.78	1.51	0.78	1.00	0.39	0.20	0.20	4.27	0.14	2.86	
NC(=O)[C@@H]1CN(c2ccc(S(=O)(=O)N[C@@H]3CCNC3)c(S(N)(=O)=O)c2-c2nn[nH]n2)CCN1 [Example 196, (S)-4-(4-(N—((R)-pyrrolidin-3-yl)sulfamoyl)-3-sulfamoyl-2-(2H-tetrazol-5-yl)phenyl)piperazine-2-carboxamide]	0.78	0.72	2.34	3.00	1.17	0.20	0.29	3.26	0.44	1.7	
NC(=O)[C@H]1CN(c2ccc(S(=O)(=O)N[C@@H]3CCNC3)c(S(N)(=O)=O)c2-c2nn[nH]n2)CCN1 [Example 197, (R)-4-(4-(N-((R)-pyrrolidin-3-yl)sulfamoyl)-3-sulfamoyl-2-(2H-tetrazol-5-yl)phenyl)piperazine-2-carboxamide]	1.56	1.44	3.13	2.00	1.56	0.39	0.29	9.95	0.74	1.89	
N[C@@H]1CCN(c2ccc(S(=O)(=O)N[C@@H]3CCNC3)c(S(N)(=O)=O)c2-c2nn[nH]n2)C[C@@H]1F [Example 198, 4-((3S,4R)-4-amino-3-fluoropiperidin-1-yl)-N1-((R)-pyrrolidin-3-yl)-3-(2H-tetrazol-5-yl)benzene-1,2-disulfonamide]	0.78	1.82	0.78	1.00	0.39	0.20	0.39	5.62	0.2	11	
N[C@H]1CCN(c2ccc(S(=O)(=O)N[C@@H]3CCNC3)c(S(N)(=O)=O)c2-c2nn[nH]n2)C[C@H]1F [Example 199, 4-((3R,4S)-4-amino-3-fluoropiperidin-1-yl)-N1-((R)-pyrrolidin-3-yl)-3-(2H-tetrazol-5-yl)benzene-1,2-disulfonamide]	0.78	1.69	0.78	1.00	0.39	0.10	0.39	6.11	0.18	4.27	
NCC1CCN(c2ccc(S(=O)(=O)NC[C@@H](N)CN)c(S(N)(=O)=O)c2-c2nn[nH]n2)CC1 [Example 200, (S)-4-(4-(aminomethyl)piperidin-1-yl)-N1-(2,3-diaminopropyl)-3-(2H-tetrazol-5-yl)benzene-1,2-disulfonamide]	50.00	3.1	50.00	1.00	3.13	1.56	0.78	4.57	0.51	8.28	
NC[C@@H](O)CNS(=O)(=O)c1ccc(N2CCC(c3ncc[nH]3)CC2)c(-c2nn[nH]n2)c1S(N)(=O)=O [Example 201, (R)-4-(4-(1H-imidazol-2-yl)piperidin-1-yl)-N1-(3-amino-2-hydroxypropyl)-3-(2H-tetrazol-5-yl)benzene-1,2-disulfonamide]	0.78	1.83	1.56	2.00	1.56	0.78	0.39	0.77	0.26	0.64	
